This note sets out measurements from patent US7575882B2, “Compositions and methods for identifying modulators of TRPV2” (Janssen Pharmaceutica N. V., priority 2005, dated 2009).

Holding throughout (format): cell-based
The test system of test [1] is deletion mutants of rat TRPV2. Put plainly: Calcium mobilization in HEK293 cells expressing rat TRPV2 deletion mutants. The following applies: mutants lacking N-terminal 20, 32/33, 65/66 or C-terminal 11, 23, 32 residues. From the text:
DNA molecules encoding the deletion mutants were amplified by PCR using the rat TRPV2 cDNA as the template. For amino-terminal deletions, a series N-terminal forward primers encoding an initiating methionine in frame with sequences matching adjacent regions of the desired start at residues G21 (mutant N20, SEQ ID NO:11), P33 (N32, SEQ ID NO:12), A66 (N65, SEQ ID NO:13) and V84 (N83, SEQ ID NO:14) paired with a C-terminal reverse primer were used for PCR amplification. While for carboxyl-terminal deletions, a forward N-terminal primer paired with a series C-terminal reverse primers ending at residues R706 (C51, SEQ ID NO:7), P729 (C32, SEQ ID NO:8), P738 (C23, SEQ ID NO:9) and E750 (C11, SEQ ID NO:10) with an in-frame stop codon at the terminal end of the open reading frame were used for amplification. After PCR amplification and purification, the DNA molecules encoding the deletion mutants were subcloned into the pCI-neo mammalian expression vector and the constructs were confirmed by DNA sequencing. […]
The deletion mutant constructs were then transfected into HEK293 cells using Fugene 6 reagent (Roche) as per the manufacturer's instructions. […] Calcium mobilization was triggered using Δ^9-THC or 2-APB or elevated temperature buffer and measured using either FLIPR or FLEX STATION instruments.
(Calcium assays in cells follow changes in intracellular calcium, usually with a dye or a luminescent sensor.)

In test [2] the test system is untransfected HEK293 cells. As to the kind of experiment: Whole-cell patch clamp, untransfected HEK293 cells (control). Conditions: 100 μM; data not shown. On the procedure:
(§1) To further confirm the Δ^9-THC effect on TRPV2, whole-cell patch clamp studies were performed. The extracellular solution contained (in mM): NaCl, 132; CaCl, 1.8; KCl, 5.4; MgCl2, 0.8; HEPES, 10; glucose, 10; pH=7.4. The intracellular solution used to fill recording pipettes contained (in mM): CsCl, 145; EGTA, 5; HEPES, 10; glucose, 5; pH=7.4. Recordings were performed using the conventional whole-cell patch clamp technique, 2-3 days after transient transfection of human TRPV2 into HEK293 cell or 1-2 days after plating HEK293 cells stably expressing rat TRPV2 onto glass coverslips. Currents were amplified by a patch clamp amplifier and filtered at 2 kHz (Axopatch 200B), sampled at 10 kHz using Digidata 1322A and acquired and analyzed with pClamp 9.0 (all instruments from Molecular Devices, CA). A 600 ms voltage ramp was given once every five seconds from −100 mV to +60 mV. The holding potential between voltage ramps was −100 mV. Extracellular solutions were applied to the cell at 0.5 ml/min via a gravity-fed perfusion system. All experiments were performed at 22° C.

For test [3], the system named is untransfected HEK293 cells. Put plainly: FLIPR calcium assay in untransfected HEK293 cells (control). Conditions: 100 μM.
In a further test the target is T1, rat TRPV2 (Rattus norvegicus, UniProt Q9WUD2, A713V/L151P/T158I).
T1 construct: A cDNA fragment encoding the full-length rat TRPV2 was subcloned into pCI-neo; expressed in transfected cells
T1 sequence (Q9WUD2 1-761 L151P/T158I/A713V): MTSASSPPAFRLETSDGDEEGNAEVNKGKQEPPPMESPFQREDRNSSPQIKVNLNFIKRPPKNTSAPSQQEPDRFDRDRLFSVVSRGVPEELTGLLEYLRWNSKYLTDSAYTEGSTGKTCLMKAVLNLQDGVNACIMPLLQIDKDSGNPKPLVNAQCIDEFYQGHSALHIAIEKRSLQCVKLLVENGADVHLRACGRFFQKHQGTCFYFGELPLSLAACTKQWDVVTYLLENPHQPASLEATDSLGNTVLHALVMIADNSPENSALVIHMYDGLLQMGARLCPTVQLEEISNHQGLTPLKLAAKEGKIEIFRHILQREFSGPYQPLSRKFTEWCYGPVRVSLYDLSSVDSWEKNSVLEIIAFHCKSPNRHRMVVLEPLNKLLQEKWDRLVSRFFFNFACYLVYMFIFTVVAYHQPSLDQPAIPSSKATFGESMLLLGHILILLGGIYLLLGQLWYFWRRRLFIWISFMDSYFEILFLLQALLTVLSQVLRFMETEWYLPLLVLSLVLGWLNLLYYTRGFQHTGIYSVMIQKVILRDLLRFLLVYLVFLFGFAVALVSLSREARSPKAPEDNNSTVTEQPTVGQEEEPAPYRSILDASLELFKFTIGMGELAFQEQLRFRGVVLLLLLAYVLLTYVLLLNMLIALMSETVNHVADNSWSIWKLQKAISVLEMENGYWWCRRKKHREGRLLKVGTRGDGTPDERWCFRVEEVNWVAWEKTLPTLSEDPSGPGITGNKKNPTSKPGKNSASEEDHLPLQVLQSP
Put plainly: Whole-cell patch clamp, HEK293 cells stably expressing rat TRPV2. Conditions: 100 μM. On the procedure:
as §1
A general note: In patch-clamp work, channel activity is measured electrically.

On to Delta-9-tetrahydrocannabinol [Δ^9-THC], for which the “response of rat TRPV2 deletion mutants to the compound” value in test [1] is given as “still active”. For the same substance, in test [2], the “current above control level in untransfected HEK293 cells” value is listed as “no current above control level”. For the same substance, the “elevation of intracellular Ca2+ in untransfected HEK293 cells” value in test [3] was “no significant intracellular Ca^+ elevation”. The “whole-cell current amplitude in HEK293 cells expressing rTRPV2 compared to control” value on rat TRPV2 (22° C., hyperpolarized and depolarized potentials) is listed as “significant increase of the whole-cell current amplitude”. In addition, the “reversal potential of the activated current” value on rat TRPV2 (whole-cell patch clamp) is on record as roughly 0 mV.
